From PubChem BioAssay (NCI) come the findings set out here.

Some test systems named below: UACC-257 melanoma; NCI-H226 lung; SN12C renal; KM12 colon; HT29 colon; T-47D breast; SF-268 CNS; HL-60(TB) leukemia; MOLT-4 leukemia; MDA-MB-231 breast.
Common to all, as to test: NCI tumour cell line growth inhibition, 48 h

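Compound exposure: 48 hours, 5 concentrations, 96-well plates. At the GI50, growth is halved. TGI: total growth inhibition.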

With `NC1CC(=O)c2c(-c3cccs3)sc(-c3cccs3)c21` (stereo not given), the GI50 with UACC-257 melanoma was 52.3 µM; in the test on NCI-H226 lung it was 21.6 µM; with SN12C renal, 24300 nM; in the test on KM12 colon it was 25 µM; in the test with HT29 colon it was 19500 nM; in the test with T-47D breast, 10.7 µM. Besides, the GI50 in the test with SF-268 CNS is 30800 nM; in the test on HL-60(TB) leukemia, 20500 nM; with MOLT-4 leukemia, 18500 nM; in the test on MDA-MB-231 breast it was 27900 nM. For the same compound, the TGI was greater than 100 µM in the test with UACC-257 melanoma; 48.3 µM in the test on NCI-H226 lung; 69.8 µM with SN12C renal; greater than 100 µM with KM12 colon; 50.1 µM in the test on HT29 colon; 36.5 µM in the test on T-47D breast. The TGI was greater than 100 µM with SF-268 CNS, 61.1 µM in the test on HL-60(TB) leukemia, greater than 100 µM with MOLT-4 leukemia and greater than 100 µM in the test with MDA-MB-231 breast.

Regarding `CCOP(=O)(OCC)/C(=C/n1c(=S)[nH]c2ccccc21)C(=O)OC`, the TGI with UACC-257 melanoma, in the test with NCI-H226 lung, in the test with SN12C renal, in the test with KM12 colon, in the test with HT29 colon and in the test with T-47D breast was greater than 100 µM in each case. Also, the TGI with SF-268 CNS, in the test on HL-60(TB) leukemia, in the test on MOLT-4 leukemia and in the test on MDA-MB-231 breast was greater than 100 µM each time.

For the compound `COC(=O)Nc1nc2ccc(C(=O)c3cccc(I)c3)cc2[nH]1`, the GI50 with UACC-257 melanoma was 15.1 µM; in the test on NCI-H226 lung, 0.259 µM; with SN12C renal, 125 nM; in the test with KM12 colon it was 0.0418 µM; with HT29 colon, 37.5 nM; with T-47D breast it was 16.5 µM. Moreover, the GI50 is 180 nM in the test on SF-268 CNS, 31.5 nM in the test on HL-60(TB) leukemia, 60.9 nM in the test on MOLT-4 leukemia and 166 nM in the test on MDA-MB-231 breast. Also, the TGI in the test with UACC-257 melanoma was greater than 100 µM; in the test with NCI-H226 lung it was 25.4 µM; in the test with SN12C renal, greater than 33.3 µM; in the test with KM12 colon, 5.7 µM; in the test with HT29 colon, 26 µM; with T-47D breast, greater than 100 µM. The TGI stood at 17.5 µM with SF-268 CNS, 0.163 µM in the test with HL-60(TB) leukemia, 10.6 µM with MOLT-4 leukemia and 5.52 µM in the test with MDA-MB-231 breast.

As for `CC1=CC2(C)/C=C(C)/C=C\CC(O)/C=C3/C=CC(=C4C(=O)OC2(CC1C)C4=O)OC3` (stereo not given), the GI50 in the test with UACC-257 melanoma is 1.82 µM; in the test on NCI-H226 lung, 11.8 µM; in the test with SN12C renal, 1920 nM; in the test on KM12 colon, 3.17 µM; in the test with HT29 colon, 2400 nM; in the test with T-47D breast, 1.63 µM. Besides, the GI50 in the test with SF-268 CNS was 2090 nM; in the test with HL-60(TB) leukemia, 600 nM; with MOLT-4 leukemia, 470 nM; in the test on MDA-MB-231 breast, 1990 nM. The TGI with UACC-257 melanoma was 4.36 µM; in the test with NCI-H226 lung it was 47.9 µM; in the test with SN12C renal it was 5.01 µM; in the test with KM12 colon, 10.5 µM; with HT29 colon it was greater than 26.4 µM; in the test on T-47D breast, 6.52 µM. Besides, the TGI in the test with SF-268 CNS was 4.75 µM; in the test on HL-60(TB) leukemia it was greater than 20.5 µM; in the test with MOLT-4 leukemia, greater than 20.4 µM; in the test with MDA-MB-231 breast, 4.25 µM.

For `COc1cc2[nH]c3c(c2cc1OC)CCN[C@@]31CC[C@@]2(CC3c4c(cc(OC)c(O)c42)CCN3C)C[C@@H]1OC` (stereo not given in full), the TGI in the test on UACC-257 melanoma is 32.9 µM; in the test with NCI-H226 lung, greater than 100 µM; with SN12C renal, greater than 100 µM; with KM12 colon, greater than 85 µM; in the test with HT29 colon, greater than 91.2 µM; with T-47D breast, 51.8 µM. Further, the TGI with SF-268 CNS is greater than 100 µM; in the test on HL-60(TB) leukemia, 30.7 µM; with MOLT-4 leukemia, greater than 56.2 µM; with MDA-MB-231 breast, greater than 100 µM.
